Data taken from PubChem BioAssay (NCI).
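Here, GI50 denotes the concentration required for 50% inhibition of growth. TGI denotes the concentration required for complete inhibition of growth.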

Key:
Assay in all cases: NCI tumour cell line growth inhibition, 384-well format
DU-145 prostate = system: DU-145 prostate
SF-268 CNS = system: SF-268 CNS
SN12C renal = system: SN12C renal
HT29 colon = system: HT29 colon
HL-60(TB) leukemia = system: HL-60(TB) leukemia
OVCAR-4 ovarian = system: OVCAR-4 ovarian
ACHN renal = system: ACHN renal
MCF7 breast = system: MCF7 breast
U251 glioblastoma = system: U251 glioblastoma
M14 melanoma = system: M14 melanoma
SF-539 CNS = system: SF-539 CNS
HS 578T breast = system: HS 578T breast
SF-295 CNS = system: SF-295 CNS
NCI-H522 lung = system: NCI-H522 lung
UACC-62 melanoma = system: UACC-62 melanoma
EKVX NSCLC = system: EKVX NSCLC
HOP-62 NSCLC = system: HOP-62 NSCLC
MDA-MB-435 melanoma = system: MDA-MB-435 melanoma
RPMI-8226 leukemia = system: RPMI-8226 leukemia
SK-MEL-2 melanoma = system: SK-MEL-2 melanoma
SK-MEL-5 melanoma = system: SK-MEL-5 melanoma
COLO 205 colon = system: COLO 205 colon
NCI-H322M lung = system: NCI-H322M lung
RXF 393 renal = system: RXF 393 renal
MOLT-4 leukemia = system: MOLT-4 leukemia
HOP-92 NSCLC = system: HOP-92 NSCLC
MALME-3M melanoma = system: MALME-3M melanoma
TK-10 renal = system: TK-10 renal
CCRF-CEM leukemia = system: CCRF-CEM leukemia
MDA-MB-468 breast = system: MDA-MB-468 breast
OVCAR-8 ovarian = system: OVCAR-8 ovarian
KM12 colon = system: KM12 colon
MDA-MB-231 breast = system: MDA-MB-231 breast
NCI-H226 lung = system: NCI-H226 lung
UACC-257 melanoma = system: UACC-257 melanoma
HCT-15 colon = system: HCT-15 colon
786-0 renal = system: 786-0 renal
SNB-19 CNS = system: SNB-19 CNS
OVCAR-5 ovarian = system: OVCAR-5 ovarian
IGROV1 ovarian = system: IGROV1 ovarian
NCI-H460 NSCLC = system: NCI-H460 NSCLC
T-47D breast = system: T-47D breast
A498 renal = system: A498 renal
CAKI-1 renal = system: CAKI-1 renal
SK-MEL-28 melanoma = system: SK-MEL-28 melanoma
NCI-H23 lung = system: NCI-H23 lung
A549 NSCLC = system: A549 NSCLC
SK-OV-3 ovarian = system: SK-OV-3 ovarian
PC-3 prostate = system: PC-3 prostate
HCC-2998 colon = system: HCC-2998 colon
OVCAR-3 ovarian = system: OVCAR-3 ovarian
SR leukemia = system: SR leukemia
SW-620 colon = system: SW-620 colon
BT-549 breast = system: BT-549 breast
NCI/ADR-RES ovarian = system: NCI/ADR-RES ovarian

Compound `C[C@]1(c2nc3c(C(N)=O)cccc3[nH]2)CCCN1` has a GI50 (DU-145 prostate) of over 100 µM, a TGI (DU-145 prostate) of over 100 µM and a GI50 (SF-268 CNS) of over 100 µM. For the same compound, the TGI (SF-268 CNS) was over 100 µM, the GI50 (SN12C renal) was 85.2 µM and the TGI (SN12C renal) was over 100 µM. For the same compound, the GI50 (HT29 colon) was over 100 µM, the TGI (HT29 colon) was over 100 µM and the GI50 (HL-60(TB) leukemia) was over 100 µM. For the same compound, the TGI (HL-60(TB) leukemia) was over 100 µM, the GI50 (OVCAR-4 ovarian) was over 100 µM and the TGI (OVCAR-4 ovarian) was over 100 µM. For the same compound, the GI50 (ACHN renal) was over 100 µM, the TGI (ACHN renal) was over 100 µM and the GI50 (MCF7 breast) was 72.9 µM. For the same compound, the TGI (MCF7 breast) was over 100 µM, the GI50 (U251 glioblastoma) was over 100 µM and the TGI (U251 glioblastoma) was over 100 µM. For the same compound, the GI50 (M14 melanoma) was over 100 µM, the TGI (M14 melanoma) was over 100 µM and the GI50 (SF-539 CNS) was over 100 µM. The TGI (SF-539 CNS) was over 100 µM, the GI50 (HS 578T breast) was over 100 µM and the TGI (HS 578T breast) was over 100 µM. For the same compound, the GI50 (SF-295 CNS) was 38.9 µM, the TGI (SF-295 CNS) was over 100 µM and the GI50 (NCI-H522 lung) was over 100 µM. The TGI (NCI-H522 lung) was over 100 µM, the GI50 (UACC-62 melanoma) was 95.6 µM and the TGI (UACC-62 melanoma) was over 100 µM. The GI50 (EKVX NSCLC) was over 100 µM, the TGI (EKVX NSCLC) was over 100 µM and the GI50 (HOP-62 NSCLC) was 40.7 µM. It also gave a TGI (HOP-62 NSCLC) of over 100 µM, a GI50 (MDA-MB-435 melanoma) of over 100 µM and a TGI (MDA-MB-435 melanoma) of over 100 µM. It also gave a GI50 (RPMI-8226 leukemia) of over 100 µM, a TGI (RPMI-8226 leukemia) of over 100 µM and a GI50 (SK-MEL-2 melanoma) of over 100 µM. For the same compound, the TGI (SK-MEL-2 melanoma) was over 100 µM, the GI50 (SK-MEL-5 melanoma) was over 100 µM and the TGI (SK-MEL-5 melanoma) was over 100 µM. The GI50 (COLO 205 colon) was over 100 µM, the TGI (COLO 205 colon) was over 100 µM and the GI50 (NCI-H322M lung) was over 100 µM. It also gave a TGI (NCI-H322M lung) of over 100 µM, a GI50 (RXF 393 renal) of over 100 µM and a TGI (RXF 393 renal) of over 100 µM. It also gave a GI50 (MOLT-4 leukemia) of 29.6 µM, a TGI (MOLT-4 leukemia) of over 100 µM and a GI50 (HOP-92 NSCLC) of over 100 µM. The TGI (HOP-92 NSCLC) was over 100 µM, the GI50 (MALME-3M melanoma) was over 100 µM and the TGI (MALME-3M melanoma) was over 100 µM. It also gave a GI50 (TK-10 renal) of over 100 µM, a TGI (TK-10 renal) of over 100 µM and a GI50 (CCRF-CEM leukemia) of over 100 µM. The TGI (CCRF-CEM leukemia) was over 100 µM, the GI50 (MDA-MB-468 breast) was 16.2 µM and the TGI (MDA-MB-468 breast) was over 100 µM. For the same compound, the GI50 (OVCAR-8 ovarian) was over 100 µM, the TGI (OVCAR-8 ovarian) was over 100 µM and the GI50 (KM12 colon) was over 100 µM. The TGI (KM12 colon) was over 100 µM, the GI50 (MDA-MB-231 breast) was over 100 µM and the TGI (MDA-MB-231 breast) was over 100 µM. It also gave a GI50 (NCI-H226 lung) of 90.3 µM, a TGI (NCI-H226 lung) of over 100 µM and a GI50 (UACC-257 melanoma) of over 100 µM. For the same compound, the TGI (UACC-257 melanoma) was over 100 µM, the GI50 (HCT-15 colon) was over 100 µM and the TGI (HCT-15 colon) was over 100 µM. It also gave a GI50 (786-0 renal) of over 100 µM, a TGI (786-0 renal) of over 100 µM and a GI50 (SNB-19 CNS) of over 100 µM. It also gave a TGI (SNB-19 CNS) of over 100 µM, a GI50 (OVCAR-5 ovarian) of 84.4 µM and a TGI (OVCAR-5 ovarian) of over 100 µM. For the same compound, the GI50 (IGROV1 ovarian) was over 100 µM, the TGI (IGROV1 ovarian) was over 100 µM and the GI50 (NCI-H460 NSCLC) was 28.7 µM. It also gave a TGI (NCI-H460 NSCLC) of over 100 µM, a GI50 (T-47D breast) of over 100 µM and a TGI (T-47D breast) of over 100 µM. For the same compound, the GI50 (A498 renal) was over 100 µM, the TGI (A498 renal) was over 100 µM and the GI50 (CAKI-1 renal) was over 100 µM. For the same compound, the TGI (CAKI-1 renal) was over 100 µM, the GI50 (SK-MEL-28 melanoma) was over 100 µM and the TGI (SK-MEL-28 melanoma) was over 100 µM. For the same compound, the GI50 (NCI-H23 lung) was 78.7 µM, the TGI (NCI-H23 lung) was over 100 µM and the GI50 (A549 NSCLC) was over 100 µM. It also gave a TGI (A549 NSCLC) of over 100 µM, a GI50 (SK-OV-3 ovarian) of over 100 µM and a TGI (SK-OV-3 ovarian) of over 100 µM. It also gave a GI50 (PC-3 prostate) of over 100 µM, a TGI (PC-3 prostate) of over 100 µM and a GI50 (HCC-2998 colon) of 26.6 µM. The TGI (HCC-2998 colon) was over 100 µM, the GI50 (OVCAR-3 ovarian) was over 100 µM and the TGI (OVCAR-3 ovarian) was over 100 µM. For the same compound, the GI50 (SR leukemia) was 14.5 µM, the TGI (SR leukemia) was 28.3 µM and the GI50 (SW-620 colon) was over 100 µM. The TGI (SW-620 colon) was over 100 µM, the GI50 (BT-549 breast) was over 100 µM and the TGI (BT-549 breast) was over 100 µM. The GI50 (NCI/ADR-RES ovarian) was over 100 µM and the TGI (NCI/ADR-RES ovarian) was over 100 µM.
